Results reported in the NIST ThermoML archive (doi:10.1021/je300280s).
Several values for one entry are separate records, joined by “and”; a condition that tells them apart may be missing. Equal values may be shown once.

Assays:
[1] = excess molar enthalpy (molar enthalpy of mixing); xn = mol fraction of the nth substance listed; details: 101.3 kPa, Liquid, Flow calorimetry
[2] = xn = mol fraction of the nth substance listed; details: 101.3 kPa, Liquid, Vibrating tube method

CCCOC(C)=O [propyl ethanoate] + O
Details	excess molar enthalpy, [1]	mass density, [2]
288.15 K, x1 = 0.000935	-0.00273 kcal/mol	999.019 kg/m3
288.15 K, x1 = 0.001246	-0.00364 kcal/mol	998.986 kg/m3
288.15 K, x1 = 0.001248	-0.00363 kcal/mol	998.988 kg/m3
288.15 K, x1 = 0.001558	-0.00452 kcal/mol	998.959 kg/m3
288.15 K, x1 = 0.00156	-0.00446 kcal/mol	998.962 kg/m3
288.15 K, x1 = 0.001869	-0.00535 kcal/mol	998.934 kg/m3
288.15 K, x1 = 0.001871	-0.00534 kcal/mol	998.936 kg/m3
288.15 K, x1 = 0.00218	-0.0062 kcal/mol	998.909 kg/m3
288.15 K, x1 = 0.002182	-0.00616 kcal/mol	998.906 kg/m3
288.15 K, x1 = 0.002491	-0.00703 kcal/mol	998.876 kg/m3
288.15 K, x1 = 0.002494	-0.00708 kcal/mol	998.882 kg/m3
298.15 K, x1 = 0.000935	-0.00206 kcal/mol	996.903 kg/m3
298.15 K, x1 = 0.000936	-0.0021 kcal/mol	996.9 kg/m3
298.15 K, x1 = 0.000937	-0.00212 kcal/mol	996.898 kg/m3
298.15 K, x1 = 0.001247	-0.00274 kcal/mol	996.856 kg/m3
298.15 K, x1 = 0.001248	-0.00277 kcal/mol	996.852 kg/m3
298.15 K, x1 = 0.001249	-0.00278 kcal/mol	996.848 kg/m3
298.15 K, x1 = 0.001558	-0.00347 kcal/mol	996.807 kg/m3
298.15 K, x1 = 0.00156	-0.00342 kcal/mol and -0.00343 kcal/mol	996.803 kg/m3 and 996.805 kg/m3
298.15 K, x1 = 0.001869	-0.00404 kcal/mol	996.762 kg/m3
298.15 K, x1 = 0.001871	-0.00407 kcal/mol	996.758 kg/m3
298.15 K, x1 = 0.001872	-0.00405 kcal/mol	996.748 kg/m3
298.15 K, x1 = 0.002181	-0.00472 kcal/mol	996.714 kg/m3
298.15 K, x1 = 0.002183	-0.00466 kcal/mol and -0.00472 kcal/mol	996.703 kg/m3 and 996.709 kg/m3
298.15 K, x1 = 0.002492	-0.00539 kcal/mol	996.669 kg/m3
298.15 K, x1 = 0.002494	–	996.669 kg/m3
298.15 K, x1 = 0.002495	–	996.655 kg/m3
308.15 K, x1 = 0.000936	-0.00148 kcal/mol and -0.00147 kcal/mol	993.831 kg/m3 and 993.832 kg/m3
308.15 K, x1 = 0.001247	-0.00196 kcal/mol and -0.00197 kcal/mol	993.761 kg/m3
308.15 K, x1 = 0.001559	-0.00245 kcal/mol and -0.00244 kcal/mol	993.691 kg/m3 and 993.692 kg/m3
308.15 K, x1 = 0.00187	-0.00286 kcal/mol and -0.00292 kcal/mol	993.628 kg/m3 and 993.621 kg/m3
308.15 K, x1 = 0.002181	-0.00332 kcal/mol and -0.00334 kcal/mol	993.559 kg/m3 and 993.557 kg/m3
308.15 K, x1 = 0.002492	-0.0037 kcal/mol and -0.00371 kcal/mol	993.5 kg/m3 and 993.503 kg/m3
318.15 K, x1 = 0.000936	-0.000911 kcal/mol	989.957 kg/m3
318.15 K, x1 = 0.000937	-0.000932 kcal/mol	989.951 kg/m3
318.15 K, x1 = 0.001247	-0.00119 kcal/mol	989.872 kg/m3
318.15 K, x1 = 0.001248	-0.00122 kcal/mol	989.86 kg/m3
318.15 K, x1 = 0.001559	-0.00148 kcal/mol	989.782 kg/m3
318.15 K, x1 = 0.001561	-0.00148 kcal/mol	989.779 kg/m3
318.15 K, x1 = 0.00187	-0.00175 kcal/mol	989.693 kg/m3
318.15 K, x1 = 0.001873	-0.00172 kcal/mol	989.698 kg/m3
318.15 K, x1 = 0.002182	-0.00201 kcal/mol	989.605 kg/m3
318.15 K, x1 = 0.002184	-0.00198 kcal/mol	989.612 kg/m3
318.15 K, x1 = 0.002493	-0.00221 kcal/mol	989.536 kg/m3
318.15 K, x1 = 0.002496	-0.00221 kcal/mol	989.532 kg/m3
